The values below come from BindingDB's records for doi:10.1111/j.1747-0285.2009.00924.x (Nankai University, 2010).

By Ki is commonly meant the dissociation constant of the complex between target and ligand, obtained from inhibition or displacement.

This test deals with T1, Ketol-acid reductoisomerase (NADP(+)) (Escherichia coli (strain K12), UniProt P05793).
T1 sequence (P05793 whole entry): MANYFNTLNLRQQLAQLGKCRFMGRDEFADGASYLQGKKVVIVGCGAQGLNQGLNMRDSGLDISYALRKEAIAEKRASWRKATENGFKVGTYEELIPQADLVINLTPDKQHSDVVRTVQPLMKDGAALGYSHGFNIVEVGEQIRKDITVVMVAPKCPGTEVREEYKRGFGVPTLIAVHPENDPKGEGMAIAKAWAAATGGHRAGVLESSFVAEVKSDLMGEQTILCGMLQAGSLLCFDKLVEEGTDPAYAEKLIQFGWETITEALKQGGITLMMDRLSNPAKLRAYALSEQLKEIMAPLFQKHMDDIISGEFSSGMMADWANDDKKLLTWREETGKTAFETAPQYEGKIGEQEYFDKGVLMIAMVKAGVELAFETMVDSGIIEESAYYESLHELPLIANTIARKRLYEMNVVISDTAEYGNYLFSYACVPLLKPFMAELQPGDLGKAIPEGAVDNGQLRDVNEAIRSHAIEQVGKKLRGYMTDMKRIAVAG
As to the kind of experiment: Enzyme Inhibition Assay. Particulars: pH 8; 30 °C. On the procedure:
Inhibition of E. coli KARI (ketol-acid reductoisomerase) is time dependent, and activity was measured by the decrease in A340 at 30 C in solutions containing 0.2 mM […], 1 mM MgCl2, substrate 2-acetolactate and inhibitor in 0.1 M phosphate buffer at pH 8.0.
`O=C(O)C1(C(=O)O)CC1` [Cyclopropane, 3]: the Ki worked out at 76.6 µM.

In turn, `N#CC1(C(=O)O)CC1` [Cyclopropane, 4] returned a Ki of 95.3 µM. Take `NC(=O)C1(C(=O)O)CC1` [Cyclopropane, 5]: the affinity corresponds to a Ki of 31.2 µM. For `CC(C)N(O)C(=O)C(=O)O` [N-hydroxy-N-isopropyloxamate, IpOHA] the value was 2.75 µM.
